Measurements: patent US20260284018A1, “DUAL INHIBITORS OF DYRK1A AND 5-HT2 FOR TREATING A BRAIN DISORDER” (THE REGENTS OF THE UNIVERSITY OF CALIFORNIA, priority 2023, published 2026)

What was measured:
[1] = test system: cortical neurons; assay: Spinogenesis; type: cell-based, rat; conditions: cortical neurons (DIV15), 10 μM, 24 h
Description: (A) Representative images of cortical neurons (DIV15) treated with compounds (10 μM) for 24 h. (B) Quantification of dendritic spine density (n=29-55 neurons per treatment condition). Data are represented as mean±SEM. *p<0.05, **p<0.01, ***p<0.001, ****p<0.0001, as compared to the vehicle control following a one-way ANOVA with Dunnett's post hoc test. VEH=vehicle (0.2% DMSO).
Spinogenesis. Spinogenesis experiments were performed as previously described with the exception that cells were treated at DIV14 and fixed 24 h after treatment on DIV15. The images were taken on a Nikon HCA confocal microscope with a 100×/NA 1.45 oil objective. Experiments were performed in duplicate with plates prepared using neurons obtained from independent pregnant dams. Images were analyzed by an experimenter blinded to the treatment conditions.

[2] = target: T1, TRKA (Homo sapiens, UniProt P04629); conditions: 10 μM; cited from earlier work
T1 construct: purchased Eurofins DiscoverX KINOMEscan scanEDGE

[3] = target: T2, ADCK3 (Homo sapiens, UniProt Q8NI60); conditions: 10 μM; cited from earlier work
T2 construct: purchased Eurofins DiscoverX

[4] = target: T3, AURKA (Homo sapiens, UniProt O14965); conditions: 10 μM; cited from earlier work
T3 construct: purchased Eurofins DiscoverX
T3 sequence (O14965 whole entry): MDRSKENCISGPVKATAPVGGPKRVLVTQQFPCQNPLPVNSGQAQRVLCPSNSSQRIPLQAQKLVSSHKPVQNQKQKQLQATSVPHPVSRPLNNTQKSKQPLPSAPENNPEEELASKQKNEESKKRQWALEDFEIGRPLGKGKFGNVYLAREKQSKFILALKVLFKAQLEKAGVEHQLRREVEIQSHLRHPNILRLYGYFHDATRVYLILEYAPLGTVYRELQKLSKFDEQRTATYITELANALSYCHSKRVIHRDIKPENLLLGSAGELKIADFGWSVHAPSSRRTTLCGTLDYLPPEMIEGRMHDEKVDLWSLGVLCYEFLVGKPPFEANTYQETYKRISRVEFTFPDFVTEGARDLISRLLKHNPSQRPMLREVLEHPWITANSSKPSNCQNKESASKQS

[5] = target: T4, CDK7 (Homo sapiens, UniProt P50613); conditions: 10 μM; cited from earlier work
T4 construct: purchased Eurofins DiscoverX

[6] = target: T5, TSSK1B (Homo sapiens, UniProt Q9BXA7); conditions: 10 μM; cited from earlier work
T5 construct: purchased Eurofins DiscoverX KINOMEscan scanEDGE
T5 sequence (Q9BXA7 whole entry): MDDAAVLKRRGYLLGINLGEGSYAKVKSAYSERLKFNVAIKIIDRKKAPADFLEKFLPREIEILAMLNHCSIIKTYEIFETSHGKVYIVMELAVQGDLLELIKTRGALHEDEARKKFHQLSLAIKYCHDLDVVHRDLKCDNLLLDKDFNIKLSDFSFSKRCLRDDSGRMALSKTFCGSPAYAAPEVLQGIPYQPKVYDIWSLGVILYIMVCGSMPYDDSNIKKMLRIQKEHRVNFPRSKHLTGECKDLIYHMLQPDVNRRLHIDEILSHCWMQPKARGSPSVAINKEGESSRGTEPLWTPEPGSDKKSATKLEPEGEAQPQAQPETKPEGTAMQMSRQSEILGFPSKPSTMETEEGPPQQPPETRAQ

[7] = target: T6, PDGFRB (Homo sapiens, UniProt P09619); conditions: 10 μM; cited from earlier work
T6 construct: purchased Eurofins DiscoverX (KINOMEscan scanEDGE service)

[8] = target: T7, BRAF(V600E) (Homo sapiens, UniProt P15056, V600E); conditions: 10 μM; cited from earlier work
T7 construct: purchased Eurofins DiscoverX

[9] = target: T8, IKK-beta (Homo sapiens, UniProt O14920); conditions: 10 μM; cited from earlier work
T8 construct: purchased Eurofins DiscoverX

[10] = target: T9, CDK11 (Homo sapiens, UniProt Q9BWU1); conditions: 10 μM; cited from earlier work
T9 construct: purchased Eurofins DiscoverX

[11] = target: T10, ULK2 (Homo sapiens, UniProt Q8IYT8); conditions: 10 μM; cited from earlier work
T10 construct: purchased Eurofins DiscoverX KINOMEscan scanEDGE

[12] = target: T11, CSNK1G2 (Homo sapiens, UniProt P78368); conditions: 10 μM; cited from earlier work
T11 construct: purchased Eurofins DiscoverX
T11 sequence (P78368 whole entry): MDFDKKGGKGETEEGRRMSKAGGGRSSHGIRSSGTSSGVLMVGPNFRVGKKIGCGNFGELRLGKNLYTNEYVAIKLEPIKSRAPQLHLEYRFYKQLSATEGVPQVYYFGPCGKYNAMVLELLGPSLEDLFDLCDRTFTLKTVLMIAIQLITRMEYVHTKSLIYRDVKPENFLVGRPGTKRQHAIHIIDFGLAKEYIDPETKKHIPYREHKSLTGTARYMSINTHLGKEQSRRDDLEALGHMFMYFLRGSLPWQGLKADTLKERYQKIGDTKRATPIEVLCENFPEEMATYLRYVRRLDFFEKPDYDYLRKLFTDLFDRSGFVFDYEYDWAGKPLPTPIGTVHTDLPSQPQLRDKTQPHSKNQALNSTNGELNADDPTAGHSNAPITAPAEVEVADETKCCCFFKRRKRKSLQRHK

[13] = target: T12, JNK1 (Homo sapiens, UniProt P45983); conditions: 10 μM; cited from earlier work
T12 construct: purchased Eurofins DiscoverX
T12 sequence (P45983 whole entry): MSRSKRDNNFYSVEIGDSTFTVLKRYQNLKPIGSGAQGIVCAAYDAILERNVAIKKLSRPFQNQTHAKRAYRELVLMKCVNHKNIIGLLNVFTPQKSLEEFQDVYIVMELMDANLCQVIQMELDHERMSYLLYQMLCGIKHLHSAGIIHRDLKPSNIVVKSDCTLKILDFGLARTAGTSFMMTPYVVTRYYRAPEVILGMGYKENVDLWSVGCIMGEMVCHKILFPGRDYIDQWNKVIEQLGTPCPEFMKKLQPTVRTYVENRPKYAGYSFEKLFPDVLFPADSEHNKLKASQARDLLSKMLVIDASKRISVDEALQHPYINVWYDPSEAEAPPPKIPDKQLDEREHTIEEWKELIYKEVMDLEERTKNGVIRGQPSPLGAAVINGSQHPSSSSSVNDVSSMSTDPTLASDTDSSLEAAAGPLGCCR

[14] = target: T13, EPHA2 (Homo sapiens, UniProt P29317); conditions: 10 μM; cited from earlier work
T13 construct: purchased Eurofins DiscoverX

[15] = target: T14, PAK1 (Homo sapiens, UniProt Q13153); conditions: 10 μM; cited from earlier work
T14 construct: purchased Eurofins DiscoverX (KINOMEscan scanEDGE service)

[16] = target: T15, JNK3 (Homo sapiens, UniProt P53779); conditions: 10 μM; cited from earlier work
T15 construct: purchased Eurofins DiscoverX
T15 sequence (P53779 whole entry): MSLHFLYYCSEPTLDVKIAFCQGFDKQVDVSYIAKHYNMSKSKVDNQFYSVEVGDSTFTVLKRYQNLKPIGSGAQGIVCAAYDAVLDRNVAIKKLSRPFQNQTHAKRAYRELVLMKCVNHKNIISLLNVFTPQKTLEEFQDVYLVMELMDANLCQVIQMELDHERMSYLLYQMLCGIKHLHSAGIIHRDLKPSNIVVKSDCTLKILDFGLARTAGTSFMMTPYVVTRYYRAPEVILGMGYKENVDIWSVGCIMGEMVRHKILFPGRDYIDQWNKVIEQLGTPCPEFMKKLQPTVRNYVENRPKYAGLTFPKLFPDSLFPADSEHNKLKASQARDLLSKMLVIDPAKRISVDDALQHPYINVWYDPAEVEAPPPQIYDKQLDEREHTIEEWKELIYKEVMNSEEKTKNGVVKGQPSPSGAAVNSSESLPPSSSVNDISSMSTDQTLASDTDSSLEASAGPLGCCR

[17] = target: T16, MAPKAPK2 (Homo sapiens, UniProt P49137); conditions: 10 μM; cited from earlier work
T16 construct: purchased Eurofins DiscoverX (KINOMEscan scanEDGE service)

[18] = target: T17, AKT1 (Homo sapiens, UniProt P31749); conditions: 10 μM; cited from earlier work
T17 construct: purchased Eurofins DiscoverX

[19] = target: T18, AKT2 (Homo sapiens, UniProt P31751); conditions: 10 μM; cited from earlier work
T18 construct: purchased Eurofins DiscoverX

[20] = target: T19, FGFR3 (Homo sapiens, UniProt P22607); conditions: 10 μM; cited from earlier work
T19 construct: purchased Eurofins DiscoverX
T19 sequence (P22607 23-806): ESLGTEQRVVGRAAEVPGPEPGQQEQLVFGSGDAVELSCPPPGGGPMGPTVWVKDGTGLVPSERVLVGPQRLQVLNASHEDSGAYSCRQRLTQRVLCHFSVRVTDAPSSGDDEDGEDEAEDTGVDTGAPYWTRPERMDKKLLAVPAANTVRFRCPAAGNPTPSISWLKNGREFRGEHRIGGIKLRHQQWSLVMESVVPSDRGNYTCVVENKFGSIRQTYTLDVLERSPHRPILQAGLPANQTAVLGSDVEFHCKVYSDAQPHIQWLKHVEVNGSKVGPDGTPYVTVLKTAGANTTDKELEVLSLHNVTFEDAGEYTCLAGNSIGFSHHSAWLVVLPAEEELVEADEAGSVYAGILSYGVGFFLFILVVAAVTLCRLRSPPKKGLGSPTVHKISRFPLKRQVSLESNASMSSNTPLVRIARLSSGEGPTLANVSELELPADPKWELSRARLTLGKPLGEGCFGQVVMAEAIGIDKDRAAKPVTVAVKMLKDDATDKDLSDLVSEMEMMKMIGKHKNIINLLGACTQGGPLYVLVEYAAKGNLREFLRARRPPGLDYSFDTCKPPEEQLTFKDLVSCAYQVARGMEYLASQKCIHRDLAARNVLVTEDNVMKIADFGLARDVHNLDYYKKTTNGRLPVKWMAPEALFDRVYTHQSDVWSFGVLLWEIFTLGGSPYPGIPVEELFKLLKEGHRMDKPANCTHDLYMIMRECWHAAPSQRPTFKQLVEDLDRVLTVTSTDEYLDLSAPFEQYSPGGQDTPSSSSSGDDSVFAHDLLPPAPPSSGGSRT

[21] = target: T20, PAK4 (Homo sapiens, UniProt O96013); conditions: 10 μM; cited from earlier work
T20 construct: purchased Eurofins DiscoverX (KINOMEscan scanEDGE service)

[22] = target: T21, JAK3(JH1domain-catalytic) (Homo sapiens, UniProt P52333); conditions: 10 μM; cited from earlier work
T21 construct: JAK3(JH1domain-catalytic); purchased Eurofins DiscoverX

[23] = target: T22, SRC (Homo sapiens, UniProt P12931); conditions: 10 μM; cited from earlier work
T22 construct: purchased Eurofins DiscoverX KINOMEscan scanEDGE

[24] = target: T23, CHEK1 (Homo sapiens, UniProt O14757); conditions: 10 μM; cited from earlier work
T23 construct: purchased Eurofins DiscoverX

[25] = target: T24, MLK1 (Homo sapiens, UniProt P80192); conditions: 10 μM; cited from earlier work
T24 construct: purchased Eurofins DiscoverX (KINOMEscan scanEDGE service)

[26] = target: T25, IKK-alpha (Homo sapiens, UniProt O15111); conditions: 10 μM; cited from earlier work
T25 construct: purchased Eurofins DiscoverX

[27] = target: T26, ZAP70 (Homo sapiens, UniProt P43403); conditions: 10 μM; cited from earlier work
T26 construct: purchased Eurofins DiscoverX KINOMEscan scanEDGE

[28] = target: T27, EGFR(L858R) (Homo sapiens, UniProt P00533, L858R); conditions: 10 μM; cited from earlier work
T27 construct: purchased Eurofins DiscoverX

[29] = target: T28, PAK2 (Homo sapiens, UniProt Q13177); conditions: 10 μM; cited from earlier work
T28 construct: purchased Eurofins DiscoverX (KINOMEscan scanEDGE service)
T28 sequence (Q13177 whole entry): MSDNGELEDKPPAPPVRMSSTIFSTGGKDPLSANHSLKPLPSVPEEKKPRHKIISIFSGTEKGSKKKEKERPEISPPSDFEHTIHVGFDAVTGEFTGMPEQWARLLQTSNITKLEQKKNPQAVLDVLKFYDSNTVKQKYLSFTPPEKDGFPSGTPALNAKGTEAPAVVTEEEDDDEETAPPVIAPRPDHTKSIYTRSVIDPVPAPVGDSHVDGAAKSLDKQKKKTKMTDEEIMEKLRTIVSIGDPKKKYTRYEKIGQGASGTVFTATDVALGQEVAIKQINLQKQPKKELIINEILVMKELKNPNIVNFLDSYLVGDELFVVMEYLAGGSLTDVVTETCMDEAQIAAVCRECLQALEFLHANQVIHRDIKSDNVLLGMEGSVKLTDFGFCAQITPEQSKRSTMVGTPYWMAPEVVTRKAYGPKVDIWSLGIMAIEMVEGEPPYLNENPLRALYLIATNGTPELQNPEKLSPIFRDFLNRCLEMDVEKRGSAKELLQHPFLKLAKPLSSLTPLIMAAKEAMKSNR

[30] = target: T29, p38-beta (Homo sapiens, UniProt Q15759); conditions: 10 μM; cited from earlier work
T29 construct: purchased Eurofins DiscoverX (KINOMEscan scanEDGE service)

[31] = target: T30, PIM2 (Homo sapiens, UniProt Q9P1W9); conditions: 10 μM; cited from earlier work
T30 construct: purchased Eurofins DiscoverX (KINOMEscan scanEDGE service)

[32] = target: T31, FGFR2 (Homo sapiens, UniProt P21802); conditions: 10 μM; cited from earlier work
T31 construct: purchased Eurofins DiscoverX

[33] = target: T32, PIK3C2B (Homo sapiens, UniProt O00750); conditions: 10 μM; cited from earlier work
T32 construct: purchased Eurofins DiscoverX (KINOMEscan scanEDGE service)
T32 sequence (O00750 whole entry): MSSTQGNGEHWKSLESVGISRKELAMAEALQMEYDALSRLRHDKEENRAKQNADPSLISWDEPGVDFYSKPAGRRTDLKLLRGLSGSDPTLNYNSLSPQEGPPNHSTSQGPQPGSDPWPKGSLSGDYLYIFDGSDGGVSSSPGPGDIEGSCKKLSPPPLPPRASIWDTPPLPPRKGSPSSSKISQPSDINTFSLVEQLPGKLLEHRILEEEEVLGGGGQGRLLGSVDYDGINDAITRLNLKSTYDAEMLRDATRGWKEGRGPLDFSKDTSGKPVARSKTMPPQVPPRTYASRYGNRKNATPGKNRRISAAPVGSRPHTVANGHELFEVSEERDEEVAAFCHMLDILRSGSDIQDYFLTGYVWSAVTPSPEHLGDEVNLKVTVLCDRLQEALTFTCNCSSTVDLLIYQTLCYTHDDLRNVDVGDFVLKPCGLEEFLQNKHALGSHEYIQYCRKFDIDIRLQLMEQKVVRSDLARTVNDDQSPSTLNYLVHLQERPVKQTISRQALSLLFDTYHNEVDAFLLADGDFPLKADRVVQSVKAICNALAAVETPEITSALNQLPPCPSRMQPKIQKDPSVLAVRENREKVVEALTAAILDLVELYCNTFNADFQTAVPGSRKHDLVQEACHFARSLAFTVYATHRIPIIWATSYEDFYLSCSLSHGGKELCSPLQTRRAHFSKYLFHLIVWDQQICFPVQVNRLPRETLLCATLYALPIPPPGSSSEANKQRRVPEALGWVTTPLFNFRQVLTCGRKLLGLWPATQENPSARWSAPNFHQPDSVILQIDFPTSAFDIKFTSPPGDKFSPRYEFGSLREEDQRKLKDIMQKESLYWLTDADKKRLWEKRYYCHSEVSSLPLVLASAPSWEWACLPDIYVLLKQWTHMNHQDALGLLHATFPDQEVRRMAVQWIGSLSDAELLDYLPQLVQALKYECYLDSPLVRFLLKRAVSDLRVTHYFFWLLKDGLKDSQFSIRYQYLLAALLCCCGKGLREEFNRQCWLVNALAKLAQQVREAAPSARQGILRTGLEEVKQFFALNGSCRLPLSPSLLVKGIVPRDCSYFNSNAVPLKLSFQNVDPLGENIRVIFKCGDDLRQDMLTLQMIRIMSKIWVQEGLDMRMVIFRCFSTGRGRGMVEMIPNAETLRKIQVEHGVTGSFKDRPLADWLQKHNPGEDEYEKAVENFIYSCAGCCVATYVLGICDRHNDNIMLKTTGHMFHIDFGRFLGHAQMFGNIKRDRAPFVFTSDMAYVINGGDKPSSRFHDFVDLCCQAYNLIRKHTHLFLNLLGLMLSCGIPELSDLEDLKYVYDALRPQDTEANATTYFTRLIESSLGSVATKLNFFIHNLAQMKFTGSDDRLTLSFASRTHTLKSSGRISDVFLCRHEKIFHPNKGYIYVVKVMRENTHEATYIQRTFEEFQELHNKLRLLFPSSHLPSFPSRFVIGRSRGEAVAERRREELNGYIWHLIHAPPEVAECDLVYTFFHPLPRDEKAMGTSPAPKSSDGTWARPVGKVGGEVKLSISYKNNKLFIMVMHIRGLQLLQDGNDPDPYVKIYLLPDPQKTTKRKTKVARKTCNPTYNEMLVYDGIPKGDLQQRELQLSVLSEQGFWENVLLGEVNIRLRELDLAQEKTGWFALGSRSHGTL

[34] = target: T33, MET (Homo sapiens, UniProt P08581); conditions: 10 μM; cited from earlier work
T33 construct: purchased Eurofins DiscoverX (KINOMEscan scanEDGE service)

[35] = target: T34, INSR (Homo sapiens, UniProt P06213); conditions: 10 μM; cited from earlier work
T34 construct: purchased Eurofins DiscoverX

[36] = target: T35, RAF1 (Homo sapiens, UniProt P04049); conditions: 10 μM; cited from earlier work
T35 construct: purchased Eurofins DiscoverX KINOMEscan scanEDGE

## COc1ccc2c3ccnc(C)c3n(CCN(C)C)c2c1.O=C(O)/C=C/C(=O)O [HTW_A_8 fumarate, 2-(7-methoxy-1-methyl-9H-pyrido[3,4-b]indol-9-yl)-N,N-dimethylethan-1-amine Fumarate Salt (2:3)]
[1]
  dendritic spine density: significantly increases dendritic spine density

## COc1ccc2c(c1)[nH]c1c(C)nccc12 [Harmine, harmine]
[2]
  Percent Control: 100%
[3]
  Percent Control: 88%
[4]
  Percent Control: 85%
[5]
  Percent Control: 21%
[6]
  Percent Control: 100%
[7]
  Percent Control: 84%
[8]
  Percent Control: 90%
[9]
  Percent Control: 95%
[10]
  Percent Control: 83%
[11]
  Percent Control: 89%
[12]
  Percent Control: 19%
[13]
  Percent Control: 41%
[14]
  Percent Control: 93%
[15]
  Percent Control: 73%
[16]
  Percent Control: 80%
[17]
  Percent Control: 72%
[18]
  Percent Control: 96%
[19]
  Percent Control: 80%
[20]
  Percent Control: 94%
[21]
  Percent Control: 76%
[22]
  Percent Control: 61%
[23]
  Percent Control: 90%
[24]
  Percent Control: 96%
[25]
  Percent Control: 100%
[26]
  Percent Control: 81%
[27]
  Percent Control: 92%
[28]
  Percent Control: 81%
[29]
  Percent Control: 47%
[30]
  Percent Control: 85%
[31]
  Percent Control: 39%
[32]
  Percent Control: 91%
[33]
  Percent Control: 97%
[34]
  Percent Control: 100%
[35]
  Percent Control: 100%
[36]
  Percent Control: 89%
